From ChEMBL document CHEMBL1201862, “PubChem BioAssay data set” (2004)
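48-hour exposure; five concentrations; linearly interpolated endpoints. Here, GI50 denotes the concentration required for 50% inhibition of growth.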 Calls of active or inactive are those of the source. No stated cut-off is given here; in the data, active = GI50 up to about 1.1 µM and inactive = higher. Where a SMILES comes first, the peptide text is derived from it. The star is where a group is joined. Boc = CC(C)(C)OC(=O)*

Experiments:
Experiment in all cases: NCI-60 cell line screen, 48 h
[1] = system: MOLT-4
[2] = system: MCF7
[3] = system: NCI/ADR-RES
[4] = system: MDA-N
[5] = system: DU-145
[6] = system: SF-268
[7] = system: NCI-H460
[8] = system: T47D
[9] = system: HCC 2998
[10] = system: SK-MEL-5
[11] = system: RPMI-8226
[12] = system: COLO 205
[13] = system: A549
[14] = system: SR

| Compound | GI50 [1] | GI50 [2] | GI50 [3] | GI50 [4] | GI50 [5] | GI50 [6] | GI50 [7] | GI50 [8] | GI50 [9] | GI50 [10] | GI50 [11] | GI50 [12] | GI50 [13] | GI50 [14] |
| --- | --- | --- | --- | --- | --- | --- | --- | --- | --- | --- | --- | --- | --- | --- |
| Cc1nc2ccc(S(=O)(=O)Nc3nccs3)cc2c(=O)n1NS(=O)(=O)c1nccs1 | 28.5 µM (inactive) | 37.4 µM (inactive) | > 100 µM (inactive) | > 100 µM (inactive) | > 100 µM (inactive) | > 100 µM (inactive) | 50.2 µM (inactive) | > 100 µM (inactive) | > 100 µM (inactive) | 88.7 µM (inactive) | > 100 µM (inactive) | > 100 µM (inactive) |  |  |
| NC(=O)c1ccccc1NC(=O)C(=O)C(c1cnc2ccc([N+](=O)[O-])cc2n1)[N+](=O)[O-] (configuration not stated) | 46.3 µM (inactive) | 62.1 µM (inactive) | > 100 µM (inactive) |  |  | > 100 µM (inactive) | 64.9 µM (inactive) | > 100 µM (inactive) | > 100 µM (inactive) | 77.8 µM (inactive) | > 100 µM (inactive) |  | > 100 µM (inactive) |  |
| CCOC(=O)C(NC(=O)N(C1=NCC(C)S1)C1CCCCC1)(OC)C(F)(F)F (configuration not stated) | 37.8 µM (inactive) | 23.4 µM (inactive) | 65.5 µM (inactive) | 30.9 µM (inactive) | 36.2 µM (inactive) | 32.6 µM (inactive) | 35.4 µM (inactive) | 32.5 µM (inactive) | 43.9 µM (inactive) | 23.8 µM (inactive) |  | 23.2 µM (inactive) | 39.1 µM (inactive) | 39.6 µM (inactive) |
| COC(=O)[C@H](Cc1ccc(O)cc1)NC(=O)[C@H](Cc1ccc(O)cc1)NC(=O)OC(C)(C)C (Boc-Tyr-Tyr-OMe) |  | 43.8 µM (inactive) | > 100 µM (inactive) | > 100 µM (inactive) | > 100 µM (inactive) | > 100 µM (inactive) | > 100 µM (inactive) |  | 39.4 µM (inactive) | 38 µM (inactive) |  | 37.2 µM (inactive) | > 100 µM (inactive) |  |
| CC(=O)[C@@]1(c2ccccc2)CC2(CCN(C)CC2)O[C@H]1C | > 100 µM (inactive) |  | > 100 µM (inactive) | > 100 µM (inactive) | > 100 µM (inactive) | > 100 µM (inactive) | > 100 µM (inactive) | > 100 µM (inactive) |  | > 100 µM (inactive) | > 100 µM (inactive) | > 100 µM (inactive) | > 100 µM (inactive) |  |
| O=CNCNCCO | > 100 µM (inactive) | > 100 µM (inactive) | > 100 µM (inactive) |  | > 100 µM (inactive) | > 100 µM (inactive) | > 100 µM (inactive) | > 100 µM (inactive) | > 100 µM (inactive) | > 100 µM (inactive) | 31.7 µM (inactive) |  | > 100 µM (inactive) | > 100 µM (inactive) |
| C=C(NC(=O)C(=C)NC(=O)c1ccc2c(n1)-c1coc(n1)C(=C)NC(=O)C(=C)NC(=O)c1nc(oc1C)C(=C)NC(=O)C(C(C)(C)O)NC(=O)C(=C)NC(=O)c1coc(n1)/C(=C/C)NC(=O)[C@H]([C@@H](C)O)NC(=O)c1csc-2n1)C(N)=O (some centres not stated) | > 87.5 µM (inactive) | > 87.5 µM (inactive) | > 87.5 µM (inactive) | > 87.5 µM (inactive) | > 87.5 µM (inactive) | > 87.5 µM (inactive) | 59.2 µM (inactive) |  | > 87.5 µM (inactive) | 41.6 µM (inactive) | > 87.5 µM (inactive) | 72.9 µM (inactive) | > 87.5 µM (inactive) | > 87.5 µM (inactive) |
| CS(=O)(=O)c1n[nH]c2nc(O)nc(O)c12 | > 10 µM (inactive) | > 10 µM (inactive) | > 10 µM (inactive) | > 10 µM (inactive) | > 10 µM (inactive) | > 10 µM (inactive) | > 10 µM (inactive) | > 10 µM (inactive) | > 10 µM (inactive) | > 10 µM (inactive) |  | > 10 µM (inactive) | > 10 µM (inactive) | > 10 µM (inactive) |
| COc1cc(C)cc(OC)c1/C=C/C(=O)O | > 100 µM (inactive) |  | > 100 µM (inactive) | > 100 µM (inactive) |  | > 100 µM (inactive) | > 100 µM (inactive) | > 100 µM (inactive) | > 100 µM (inactive) | > 100 µM (inactive) | > 100 µM (inactive) |  | > 100 µM (inactive) | > 100 µM (inactive) |
| C=CC[N+]12CN3CN(CN(C3)C1)C2 | 33.4 µM (inactive) | 30.1 µM (inactive) | 26.1 µM (inactive) | 17.3 µM (inactive) | 21.1 µM (inactive) | 24.6 µM (inactive) | 24.2 µM (inactive) | 27 µM (inactive) | 24 µM (inactive) | 36.6 µM (inactive) | 4.14 µM (inactive) | 25.9 µM (inactive) | 31.3 µM (inactive) |  |
| COc1cc(CO)c(CC(=O)NCCCc2ccccc2)cc1OC | > 100 µM (inactive) |  | 99.1 µM (inactive) | 34.1 µM (inactive) | > 100 µM (inactive) |  | > 100 µM (inactive) | 15 µM (inactive) | > 100 µM (inactive) | 67.9 µM (inactive) |  | > 100 µM (inactive) | > 100 µM (inactive) | 9.06 µM (inactive) |
| S=C(S)N1CCN(c2ccccc2)CC1 |  | > 100 µM (inactive) | > 100 µM (inactive) | > 100 µM (inactive) | > 100 µM (inactive) | 88.3 µM (inactive) |  | > 100 µM (inactive) | 71.3 µM (inactive) | 20.7 µM (inactive) | 27.5 µM (inactive) | 57.5 µM (inactive) | > 100 µM (inactive) |  |
| O=C(O)C1(Cc2ccc3c(c2)CCC3)Cc2cc3c(cc2C1)CCC3 | > 100 µM (inactive) | > 100 µM (inactive) |  | > 100 µM (inactive) | > 100 µM (inactive) | > 100 µM (inactive) |  |  | > 100 µM (inactive) | > 100 µM (inactive) | > 100 µM (inactive) | > 100 µM (inactive) | > 100 µM (inactive) | > 100 µM (inactive) |
| CCCc1cc(=O)oc2c3c(c4c(c12)OC(C)(C)CC4)O[C@@H](C)[C@H](C)[C@H]3O | 3.85 µM (inactive) | 12.6 µM (inactive) | 9.4 µM (inactive) | 2.69 µM (inactive) | 17.8 µM (inactive) | 15.1 µM (inactive) | 8.49 µM (inactive) | 6.58 µM (inactive) | 13.6 µM (inactive) | 6.7 µM (inactive) | 4.35 µM (inactive) | 12.6 µM (inactive) | 10.8 µM (inactive) |  |
| CCN(CCO)C(=O)C1(c2ccccc2)CCCCC1 | > 10 µM (inactive) | > 10 µM (inactive) | > 10 µM (inactive) |  | > 10 µM (inactive) | > 10 µM (inactive) | > 10 µM (inactive) | > 10 µM (inactive) | > 10 µM (inactive) | > 10 µM (inactive) | > 10 µM (inactive) | > 10 µM (inactive) | > 10 µM (inactive) | > 10 µM (inactive) |
| S=C(Cc1ccc2c(c1)Sc1ccccc1O2)N1CCOCC1 | 52.1 µM (inactive) | 36.7 µM (inactive) | 24.8 µM (inactive) | 42.7 µM (inactive) | > 100 µM (inactive) | 32.6 µM (inactive) | 23.5 µM (inactive) | 38.7 µM (inactive) | 86.1 µM (inactive) |  | 34.8 µM (inactive) | 36.6 µM (inactive) | 35.7 µM (inactive) | 26.7 µM (inactive) |
| CN(C)Cc1cc(/N=N/c2ccc(Cl)cc2)ccc1OC(=O)c1ccccc1 | 8.85 µM (inactive) | 13.2 µM (inactive) | 17.7 µM (inactive) | 16.5 µM (inactive) | 17 µM (inactive) | 19.2 µM (inactive) | 15.3 µM (inactive) |  | 15.3 µM (inactive) | 14.9 µM (inactive) | 15.6 µM (inactive) | 18.4 µM (inactive) | 3.26 µM (inactive) | 12 µM (inactive) |
| O=P1(O)c2ccccc2CS(=O)(=O)Cc2ccccc21 | > 100 µM (inactive) | > 100 µM (inactive) | > 100 µM (inactive) | > 100 µM (inactive) | > 100 µM (inactive) | > 100 µM (inactive) | > 100 µM (inactive) | > 100 µM (inactive) | > 100 µM (inactive) | > 100 µM (inactive) |  | > 100 µM (inactive) | > 100 µM (inactive) |  |
| COc1ccc(C(C2C(=O)N(C)C(=O)N(C)C2=O)C(F)(F)C(=O)N(C)C)cc1 (configuration not stated) |  | > 100 µM (inactive) | > 100 µM (inactive) |  | > 100 µM (inactive) | > 100 µM (inactive) | > 100 µM (inactive) | > 100 µM (inactive) | > 100 µM (inactive) | > 100 µM (inactive) | > 100 µM (inactive) | > 100 µM (inactive) | > 100 µM (inactive) |  |
| BrP(NC1CCCCCC1)(c1ccccc1)(c1ccccc1)c1ccccc1 |  | 2.5 µM (inactive) | 44 µM (inactive) |  | 8.26 µM (inactive) | 2.88 µM (inactive) | 1.33 µM (inactive) | 1.93 µM (inactive) | 2.04 µM (inactive) | 1.59 µM (inactive) | 1.03 µM (active) | 1.78 µM (inactive) | 5.94 µM (inactive) | 3.88 µM (inactive) |
| C(=C\Nc1ccc(Oc2ccccc2)cc1)/C=N/c1ccc(Oc2ccccc2)cc1 | > 10 µM (inactive) | 16.9 µM (inactive) | 16.9 µM (inactive) | 16.2 µM (inactive) | 20.1 µM (inactive) | 21 µM (inactive) | 16.7 µM (inactive) |  | 15.9 µM (inactive) |  | 21.8 µM (inactive) | 20 µM (inactive) | 22.1 µM (inactive) | 19.4 µM (inactive) |
| COc1ccc(-c2csc3c2[N+]2(C)C=CC=C2C3N2CCCC2)cc1 (configuration not stated) | 27.5 µM (inactive) | 29 µM (inactive) | 17.3 µM (inactive) | 7.6 µM (inactive) |  | 22 µM (inactive) | 16.1 µM (inactive) | 16.3 µM (inactive) |  | 8.59 µM (inactive) | 8.34 µM (inactive) | 13.6 µM (inactive) | 39.9 µM (inactive) | 5.28 µM (inactive) |
